Tested on: Respiratory syncytial virus (RSV) strain A2
Assay: Hep-2 RSV2 384-well assay (EC50-HEP2-384)
Assay type: cell-based
Settings: HEp-2 cells, RSV A2, MOI=4, 4 days, Table 3

**Q.** How did the EC50 turn out when `C[C@H](NP(=O)(OC[C@H]1O[C@@](C#N)(c2ccc3c(N)ncnn23)[C@H](O)[C@@H]1O)Oc1ccc(C(C)(C)C)cc1)C(=O)OC1CC2(CCCC2)C1` (stereo partly drawn) [Example 97b, Spiro[3.4]octan-2-yl ((((2R,3S,4R,5R)-5-(4-aminopyrrolo[2,1-f][1,2,4]triazin-7-yl)-5-cyano-3,4-dihydroxytetrahydrofuran-2-yl)methoxy)(4-(tert-butyl)phenoxy)phosphoryl)-L-alaninate] was run?
**A.** The EC50 was 106 nM.

**Q.** How did the EC50 turn out when `CC(=O)O[C@H]1[C@@H](OC(C)=O)[C@](C#N)(c2ccc3c(N)ncnn23)O[C@@H]1COP(=O)(N[C@@H](C)C(=O)OC1CC2(CCCC2)C1)Oc1ccc(C(C)(C)C)cc1` (stereo partly drawn) [Example 98b, (2R,3R,4R,5R)-2-(4-aminopyrrolo[2,1-f][1,2,4]triazin-7-yl)-5-((((4-(tert-butyl)phenoxy)(((S)-1-oxo-1-(spiro[3.4]octan-2-yloxy)propan-2-yl)amino)phosphoryl)oxy)methyl)-2-cyanotetrahydrofuran-3,4-diyl Diacetate] was run?
**A.** Its EC50 is 52.2 nM.

**Q.** `CCC(=O)O[C@H]1[C@@H](OC(=O)CC)[C@](C#N)(c2ccc3c(N)ncnn23)O[C@@H]1COP(=O)(N[C@@H](C)C(=O)OC1CC2(CCCC2)C1)Oc1ccc(C(C)(C)C)cc1` (stereo partly drawn) [Example 99b, (2R,3R,4R,5R)-2-(4-aminopyrrolo[2,1-f][1,2,4]triazin-7-yl)-5-((((4-(tert-butyl)phenoxy)(((S)-1-oxo-1-(spiro[3.4]octan-2-yloxy)propan-2-yl)amino)phosphoryl)oxy)methyl)-2-cyanotetrahydrofuran-3,4-diyl Dipropionate] was tested. Which EC50 did it give?
**A.** Its EC50 is 66.9 nM.

Same assay, conditions: human respiratory syncytial virus, HEp-2, 96 h, HEp-2 cells, RSV A2, MOI=4, 4 days, Table 3

**Q.** How did the EC50 turn out when `C[C@H](NP(=O)(OC[C@H]1O[C@@](C#N)(c2ccc3c(N)ncnn23)[C@H](O)[C@@H]1O)Oc1ccc(C(C)(C)C)cc1)C(=O)OCc1ccccc1` (stereo partly drawn) [Example 57, Benzyl ((((2R,3S,4R,5R)-5-(4-aminopyrrolo[2,1-f][1,2,4]triazin-7-yl)-5-cyano-3,4-dihydroxytetrahydrofuran-2-yl)methoxy)(4-(tert-butyl)phenoxy)phosphoryl)-L-alaninate] was run?
**A.** The EC50 was 186 nM.

**Q.** With `CC(C)C(=O)O[C@H]1[C@@H](OC(=O)C(C)C)[C@](C#N)(c2ccc3c(N)ncnn23)O[C@@H]1COP(=O)(N[C@@H](C)C(=O)OCc1ccccc1)Oc1ccc(C(C)(C)C)cc1` (stereo partly drawn) [Example 58, (2R,3R,4R,5R)-2-(4-aminopyrrolo[2,1-f][1,2,4]triazin-7-yl)-5-((((((S)-1-(benzyloxy)-1-oxopropan-2-yl)amino)(4-(tert-butyl)phenoxy)phosphoryl)oxy)methyl)-2-cyanotetrahydrofuran-3,4-diyl bis(2-methylpropanoate)] as the molecule, how does the EC50 read?
**A.** The EC50 was 71.5 nM.

**Q.** `CCC(CC)COC(=O)[C@H](C)NP(=O)(OC[C@H]1O[C@@](C#N)(c2ccc3c(N)ncnn23)[C@H](O)[C@@H]1O)Oc1ccc(N2CCOCC2)cc1` (stereo partly drawn) [Example 92, 2-ethylbutyl ((((2R,3S,4R,5R)-5-(4-aminopyrrolo[2,1-f][1,2,4]triazin-7-yl)-5-cyano-3,4-dihydroxytetrahydrofuran-2-yl)methoxy)(4-morpholinophenoxy)phosphoryl)-L-alaninate] was tested. Which EC50 did it give?
**A.** Its EC50 is 2490 nM.

**Q.** `C[C@H](NP(=O)(OC[C@H]1O[C@@](C#N)(c2ccc3c(N)ncnn23)[C@H](O)[C@@H]1O)Oc1ccc(C(C)(C)C)cc1)C(=O)OC1CC2(CCCC2)C1` (stereo partly drawn) [Example 97a, Spiro[3.4]octan-2-yl ((((2R,3S,4R,5R)-5-(4-aminopyrrolo[2,1-f][1,2,4]triazin-7-yl)-5-cyano-3,4-dihydroxytetrahydrofuran-2-yl)methoxy)(4-(tert-butyl)phenoxy)phosphoryl)-L-alaninate] was tested. Which EC50 did it give?
**A.** Its EC50 is 103 nM.

**Q.** With `CCC(=O)O[C@H]1[C@@H](OC(=O)CC)[C@](C#N)(c2ccc3c(N)ncnn23)O[C@@H]1COP(=O)(N[C@@H](C)C(=O)OC1CC2(CCCC2)C1)Oc1ccc(C(C)(C)C)cc1` (stereo partly drawn) [Example 99a, (2R,3R,4R,5R)-2-(4-aminopyrrolo[2,1-f][1,2,4]triazin-7-yl)-5-((((4-(tert-butyl)phenoxy)(((S)-1-oxo-1-(spiro[3.4]octan-2-yloxy)propan-2-yl)amino)phosphoryl)oxy)methyl)-2-cyanotetrahydrofuran-3,4-diyl Dipropionate] as the molecule, how does the EC50 read?
**A.** The EC50 was 81.7 nM.
